These results are taken from patent publication US5214047A, “Tetracyclic quinazoline derivatives, effective as antiarrythmic agents” (priority 1987, dated 1993).

Counter-ions that a name gives are not always drawn.

The assay concerns QT interval. Kind of assay: QT interval prolongation (ECG, class III action) in anesthetized guinea pigs. The note with it: guinea pigs, intravenous; for ED (20%): Cavia porcellus, urethane anesthesia, dose for 20% QT prolongation calculated from log dose (mg/kg) vs relative QT prolongation, read-out: Prolongation of the QT interval ED20%; for Potency relative to that of d-sotalol = 1.0: QT prolongation, ED20%. The format is in vivo, Pirbright white guinea pigs. The procedure: The action of the novel substances has been tested as follows:
The experimental animals used were male and female Pirbright white guinea pigs weighing 300-500 g. 1.5 g/kg urethane i.p. were used for anesthesia. The substances were administered intravenously. The extremity lead II was recorded to measure the ECG conduction times and the heart rate. The measured variables were the QT and PQ intervals and the heart rate. 4-6 animals were used for each dose. The criterion for a class III action was an increase in the QT interval compared with the values before administration of the substance. A PQ increase and a large decrease in the heart rate were used as exclusion criteria. The ED20% is calculated from the linear relation between log dose (mg/kg) of the substance and the relative prolongation of the QT interval (Δ%).

In the case of `CC1CN=C2c3ccccc3N3CCCC3(c3ccc([N+](=O)[O-])cc3)N21` (stereo not drawn) [Example 48, 2,3,5,6,7,8-Hexahydro-3-methyl-5-(4-nitrophenyl)imidazo[1,2-c]pyrrolo[1,2-a]quinazoline hydrochloride], the ED (20%) is 0.31 mg/kg and the “Potency relative to that of d-sotalol = 1.0” value (from here on “Potency relative to that”) is given as 11.8. For `c1ccc(C23CCCN2c2ccccc2C2=NCCCN23)cc1` (stereo not drawn) [Example 49, 2,3,5,6,7,8-Hexahydro-6-phenyl-2H-pyrimido[1,2-c]pyrrolo[1,2-a]quinazoline hydrochloride], in that order: 0.32 mg/kg and 11. Regarding `c1ccc(C23CCCN2c2ccccc2C2=NCCN23)cc1` (stereo not drawn) [Example 50, hydrochloride], the ED (20%) is 0.25 mg/kg and the “Potency relative to that” value was 15. For the compound `CS(=O)(=O)Oc1ccc(C23CCCN2c2ccccc2C2=NCCN23)cc1` (stereo not drawn) [Example 53, hydrochloride], the ED (20%) was 1 mg/kg and the “Potency relative to that” value is listed as 3.6.

Regarding `CC(C)NC[C@@H](O)c1ccc(NS(C)(=O)=O)cc1` [d-sotalol, reference compound], the ED (20%) is 3.6 mg/kg.
